Reference: patent US7517884B2 (Kalypsys Inc., priority 1998, dated 2009)

Tested on: Diet-Induced Obesity (DIO) in Mice
Assay: Model of Diet-Induced Obesity (DIO) in mice, dose ranging study
Assay type: in vivo, C57B1/6j mice
Details: HFD, 1.5 mg/kg BID
Description: Evaluation of Pharmacological Efficacy of a Compound of the Invention in a Model of Diet-Induced Obesity (DIO) in Mice
Metabolic syndrome in humans is characterized by abdominal obesity, high triglycerides, impaired fasting glucose and hyperinsulinemia. In the DIO model, mice are fed high fat diet (HFD, Research diet D12492, Research Diet, NJ) diet (58% lard) for the entire period of the study. Compared to normal chow (NC, Harlan-Tekland #8604, WI) fed animals the HF fed mice develop several features of metabolic syndrome such as, hypertriglyceridemia, hyperinsulinemia and mild hyperglycemia, as early as two weeks, on this diet. […] This model was used to evaluate the pharmacological effects of a compound of the invention selected from the group consisting of Examples 1-141 (referred to for the purposes of this study as “Compound (I)”) in mitigating several features of HFD induced metabolic syndrome in rodents.
C57B1/6j mice (n=5) were fed ad libitum with either the HFD (58% fat) or NC (5%) diet for 3 weeks prior to start of experiment, and throughout the course of the experiment (45 days). Starting on Day 1, mice were dosed BID with either Compound (I)+vehicle, vehicle alone, or GW501516, a known PPARδ modulator in clinical development by Glaxo-Wellcome, for the entire period of the study. Animals were the assessed for body weight gain, food intake, triglyceride (TG), insulin, and glucose levels under fasting and postprandial (PP) conditions. Animals were weighed twice weekly in the morning to determine body weight gain. Plasma or serum was separated from whole blood (Sarstedt) and TG levels were assayed with a TG kit (Thermo Electron Corporation, TX). Plasma insulin levels were assayed using the ultrasensitive mouse Insulin ELISA immunoassay (American Laboratory Products Company). Total cholesterol, HDLc and LDLc was measured to evaluate pharmacological efficacy at various time points during the study and serum transaminases were measured to evaluate any potential toxicity of the compound. These measurements were performed with a chemistry analyzer at Labcorp of America, NC.

Cc1cc(SCc2sc(-c3ccc(C(F)(F)F)cc3)nc2C)ccc1OCC(=O)O [GW516]
% change in body weight (d0 vs d40): 10.6%
Insulin: 1.3 ± 0.3 ng/mL
TG: 268 ± 56 mg/dL
